melting point	SMILES
133.9 to 141.6 °C	C(#Cc1ccc(OC2CN3CCC2CC3)nn1)c1ccsc1.O=C(O)/C=C/C(=O)O (racemic) [Compound C10, (±)-3-(6-Thiophen-3-ylethynyl-pyridazin-3-yloxy)-1-aza-bicyclo[2.2.2]octane fumaric acid salt]
212 to 220 °C	Nc1ccc(C#Cc2ccc(OC3CN4CCC3CC4)nn2)cc1 (racemic) [Compound C8, (±)-4-[6-(1-Aza-bicyclo[2.2.2]oct-3-yloxy)-pyridazin-3-ylethynyl]-phenylamine free base]

The next lines start with the molecule.

SMILES	melting point
C(#Cc1ccc(OC2CN3CCC2CC3)cc1)c1ccccc1.O=C(O)/C=C/C(=O)O (racemic)	126.9 to 127.3 °C
Nc1cccc(C#Cc2ccc(OC3CN4CCC3CC4)nn2)c1 (racemic) [Compound C7, (±)-3-[6-(1-Aza-bicyclo[2.2.2]oct-3-yloxy)-pyridazin-3-ylethynyl]-phenylamine free base]	152.4 to 158.1 °C
CC(=O)Nc1ccc(C#Cc2ccc(OC3CN4CCC3CC4)nn2)cc1 (racemic) [Compound C6, (±)-N-{4-[6-(1-Aza-bicyclo[2.2.2]oct-3-yloxy)-pyridazin-3-ylethynyl]-phenyl}-acetamide free base]	169.5 to 175.4 °C

From patent US7652010B2 (priority 2004, dated 2010)
